# Reference: US20250296959A1, “B7-H3 TARGETING PEPTIDES AND CONSTRUCTS THEREOF” (Mariana Oncology Inc., priority 2024, published 2025)
# Starred links: 1 amine or outer side, 2 acyl side, 3 side chain; linkers in the order of their positions; H or OH if unused. Positions of bridges follow the written chain, without caps; N, C: chain ends. Non-standard residues stand in square brackets, D forms with d. Residues, ends and D or L forms follow the SMILES beside them. Groups on a side chain read outwards from the residue. Primed or numbered codes have the meaning given here. *: point of attachment. Ala(1-CH2CO2H-4-piperidyl) = N[C@@H](CC1CCN(CC(=O)O)CC1)C(=O)O; Ala(piperidin-4-yl) = O=C([C@H](CC1CCN([*:3])CC1)N[*:1])[*:2]; DOTA = O=C(O)CN1CCN(CC(=O)O)CCN(CC(=O)*)CCN(CC(=O)O)CC1; Trp(5-F) = N[C@@H](Cc1c[nH]c2ccc(F)cc12)C(=O)O; X1 = C[C@@H](c1ccccc1)[C@H](N[*:1])C(=O)[*:2]; Val(3-OH) = CC(C)(O)[C@H](N)C(=O)O; PEG4 = NCCOCCOCCOCCOCCC(=O)O; Tle = CC(C)(C)[C@H](N)C(=O)O; hLeu = CC(C)CC[C@H](N)C(=O)O; Nle = CCCC[C@H](N)C(=O)O; PEG8′ = not defined here
# B1: Cpd 29 (peptide)
# peptide: Ac-[Nle]YCVGKYDVYCWFE[dK](DOTA)-NH2
# modifications: disulfide 3-11
# SMILES: CCCC[C@H](NC(C)=O)C(=O)N[C@@H](Cc1ccc(O)cc1)C(=O)N[C@H]1CSSC[C@@H](C(=O)N[C@@H](Cc2c[nH]c3ccccc23)C(=O)N[C@@H](Cc2ccccc2)C(=O)N[C@@H](CCC(=O)O)C(=O)N[C@H](CCCCNC(=O)CN2CCN(CC(=O)O)CCN(CC(=O)O)CCN(CC(=O)O)CC2)C(N)=O)NC(=O)[C@H](Cc2ccc(O)cc2)NC(=O)[C@H](C(C)C)NC(=O)[C@H](CC(=O)O)NC(=O)[C@H](Cc2ccc(O)cc2)NC(=O)[C@H](CCCCN)NC(=O)CNC(=O)[C@H](C(C)C)NC1=O
# B2: Cpd 33 (peptide)
# peptide: Ac-[Nle]YCVGKYDVYCWFT-OH
# modifications: disulfide 3-11
# B3: Cpd 5 (peptide)
# peptide: {DOTA-PEG8′}-[Nle]YCVGKYDVYCWF-NH2
# modifications: disulfide 3-11
# How the values were obtained:
# 2Ig B7-H3 = biological target: T1, 2Ig B7-H3 (Homo sapiens, UniProt Q5ZPR3); assay: SPR binding affinity to 2Ig B7-H3
# T1 sequence (Q5ZPR3 29-316 isoform Q5ZPR3-2 limits assumed): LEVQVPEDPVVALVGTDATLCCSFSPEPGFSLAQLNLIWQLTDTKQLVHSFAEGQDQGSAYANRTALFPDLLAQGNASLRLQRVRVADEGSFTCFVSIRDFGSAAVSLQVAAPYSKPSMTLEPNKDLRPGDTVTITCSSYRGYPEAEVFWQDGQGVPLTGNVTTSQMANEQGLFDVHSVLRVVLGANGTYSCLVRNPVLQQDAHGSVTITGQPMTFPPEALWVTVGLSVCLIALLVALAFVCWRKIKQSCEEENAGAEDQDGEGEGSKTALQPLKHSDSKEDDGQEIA
# Calu-6 tumors = assay: Ex vivo biodistribution of radiolabeled peptides in nude mice bearing Calu-6 tumors; conditions: [177Lu]Lu labeling, 24 h post-injection
# Description: Mice were euthanized at pre-determined time points and selected tissues were resected and collected into pre-weighed tubes. The tubes were then reweighed post resection, the difference giving the weight of each tissue. Radioactivity in each tissue was measured using a gamma counter. Counts were decay corrected to the time of injection and percentage of injected activity per gram (% IA/g) was calculated for each tissue based on the injected activity into each individual mouse. Injected activity was converted to counts based on the sensitivity of the gamma counter. The counts in tissue were then converted to the percentage of injected activity and this was divided by the mass of tissue to give % IA/g.
# human 4lg B7-H3 = biological target: T2, human 4lg B7-H3 (Homo sapiens, UniProt Q5ZPR3); assay: Affinity determination by surface plasmon resonance (SPR) to 4Ig B7-H3
# T2 sequence (Q5ZPR3 29-534): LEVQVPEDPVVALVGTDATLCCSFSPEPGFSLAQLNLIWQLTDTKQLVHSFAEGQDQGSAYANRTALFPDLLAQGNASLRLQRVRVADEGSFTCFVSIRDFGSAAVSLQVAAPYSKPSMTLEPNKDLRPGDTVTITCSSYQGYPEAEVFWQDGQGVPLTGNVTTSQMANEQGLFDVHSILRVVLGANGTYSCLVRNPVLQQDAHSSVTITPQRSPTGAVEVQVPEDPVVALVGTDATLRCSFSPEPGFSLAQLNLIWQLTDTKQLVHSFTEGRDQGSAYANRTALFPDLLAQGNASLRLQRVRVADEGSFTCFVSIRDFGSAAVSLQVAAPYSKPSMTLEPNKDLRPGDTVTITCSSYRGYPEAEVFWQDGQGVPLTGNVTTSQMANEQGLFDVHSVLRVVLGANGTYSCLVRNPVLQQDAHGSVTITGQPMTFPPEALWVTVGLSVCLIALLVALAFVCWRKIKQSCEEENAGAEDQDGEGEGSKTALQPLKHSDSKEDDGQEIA
# [1] = biological target: T3, Biotinylated human 4Ig B7-H3 (human, UniProt Q5ZPR3 29-461, limits assumed, biotinylated (site not stated)); assay: SPR 37C; C = 10<KD<=100 nM
# T3 construct: Protein captured on the SA chip for SPR; also called 4lg-B7-H3; B7-H3 isoform 4Ig
# T3 sequence: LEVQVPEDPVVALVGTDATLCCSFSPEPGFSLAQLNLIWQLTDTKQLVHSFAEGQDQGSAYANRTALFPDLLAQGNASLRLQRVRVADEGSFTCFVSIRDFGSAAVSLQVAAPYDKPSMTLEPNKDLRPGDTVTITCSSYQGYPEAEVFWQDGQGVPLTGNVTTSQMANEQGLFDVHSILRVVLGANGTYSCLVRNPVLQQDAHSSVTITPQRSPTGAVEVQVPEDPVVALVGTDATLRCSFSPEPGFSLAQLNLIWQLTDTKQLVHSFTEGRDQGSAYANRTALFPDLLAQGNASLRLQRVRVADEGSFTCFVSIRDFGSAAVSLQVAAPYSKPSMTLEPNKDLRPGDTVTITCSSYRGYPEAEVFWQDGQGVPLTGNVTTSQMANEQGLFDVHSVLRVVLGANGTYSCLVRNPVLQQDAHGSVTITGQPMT
Molecule,Kd (2Ig B7-H3),kidney uptake (% IA/g) (Calu-6 tumors; kidney),tumor uptake (% IA/g) (Calu-6 tumors; tumor),Kd (human 4lg B7-H3),KD [1]
"CC(=O)N[C@@H](CCC(C)C)C(=O)N[C@@H](Cc1ccc(O)cc1)C(=O)N[C@H]1CSSC[C@@H](C(=O)N[C@@H](Cc2c[nH]c3ccc(F)cc23)C(=O)N[C@H](C(=O)N[C@H](C(=O)N[C@H](C)C(=O)O)C(C)(C)O)[C@@H](C)c2ccccc2)NC(=O)[C@H](Cc2ccc(O)cc2)NC(=O)[C@H](C(C)C)NC(=O)[C@H](CC(=O)O)NC(=O)[C@H](CC2CCN(C(=O)CCOCCOCCOCCOCCNC(=O)CN3CCN(CC(=O)O)CCN(CC(=O)O)CCN(CC(=O)O)CC3)CC2)NC(=O)[C@H](CC2CCN(CC(=O)O)CC2)NC(=O)CNC(=O)[C@H](C(C)(C)C)NC1=O [compound 526, Ac-hLeu-Y-C-Tbg-G-Pip(CH2COOH)Ala-Pip(PEG4-DOTA)Ala-D-V-Y-C-5FW-[(2S, 3S)beta-Me-Phe]-hydroxyVal-dAla-COOH] (Ac-[hLeu]YC[Tle]G[Ala(1-CH2CO2H-4-piperidyl)][Ala(piperidin-4-yl)]([PEG4-DOTA])DVYC[Trp(5-F)][X1][Val(3-OH)][dA]-OH; disulfide 3-11)",380 nM,D (% IA/g > 10 in kidney),A (0 < % IA/g ≤ 5 in tumor),< 1 nM,
B1,,,,,10 to 100 nM
B2,,,,,10 to 100 nM
B3,,,,,10 to 100 nM
